Laboratory results as given in ChEMBL document CHEMBL4261482, “Development of small molecular compounds targeting cancer stem cells” (Medchemcomm, 2017).

Experiments:
DU-4475 [1] = assay: Cytotoxicity against human DU4475 cells assessed as decrease in cell viability after 72 hrs by CCK8 assay; type: functional, cell-based; details: DU-4475, 72 h
Lu-99 cell line [2] = assay: Cytotoxicity against human LU99 cells assessed as decrease in cell viability after 72 hrs by CCK8 assay; type: functional, cell-based; details: Lu-99, 72 h
HCT-116 = assay: Cytotoxicity against human HCT116 cells assessed as decrease in cell viability after 72 hrs by CCK8 assay; type: functional, cell-based; details: HCT-116, 72 h
UMUC3 = assay: Cytotoxicity against human UM-UC-3 cells assessed as decrease in cell viability after 72 hrs by CCK8 assay; type: functional, cell-based; details: UMUC3, 72 h
T47D [3] = assay: Cytotoxicity against human T47D cells assessed as decrease in cell viability after 72 hrs by CCK8 assay; type: functional, cell-based
MDA-MB-231 = assay: Cytotoxicity against human MDA-MB-231 cells assessed as decrease in cell viability after 72 hrs by CCK8 assay; type: functional, cell-based; details: MDA-MB-231, 72 h
Lu-99 cell line [4] = assay: Antitumor activity against human LU99 cells xenografted in BALB/cSLC-nu/nu mouse assessed as tumor growth inhibition at 40 mg/kg, iv administered in liposomal formulation on day 1, 4, 8, 11, 15, 18 measured on day 22 relative to control; type: functional; details: Lu-99, iv, read-out: TGI
Lu-99 cell line [5] = assay: Antitumor activity against human LU99 cells xenografted in BALB/cSLC-nu/nu mouse assessed as tumor growth inhibition at 100 mg/kg, po qd administered for 14 days measured on day 15 relative to control; type: functional; details: Lu-99, po, read-out: TGI
Daudi = assay: Cytotoxicity against human Daudi cells assessed as decrease in cell viability after 72 hrs by CCK8 assay; type: functional, cell-based
MIA PaCa-2 = assay: Cytotoxicity against human MIAPaCa2 cells assessed as decrease in cell viability after 72 hrs by CCK8 assay; type: functional, cell-based; details: MIA PaCa-2, 72 h
HepG2 = assay: Cytotoxicity against human HepG2 cells assessed as decrease in cell viability after 72 hrs by CCK8 assay; type: functional, cell-based; details: HepG2, 72 h
MKN-45 = assay: Cytotoxicity against human MKN45 cells assessed as decrease in cell viability after 72 hrs by CCK8 assay; type: functional, cell-based; details: MKN-45, 72 h
A549 [6] = assay: Cytotoxicity against human A549 cells assessed as decrease in cell viability after 72 hrs by CCK8 assay; type: functional, cell-based; details: A549, 72 h
CWR22R [7] = assay: Cytotoxicity against human 22Rv1 cells assessed as decrease in cell viability after 72 hrs by CCK8 assay; type: functional, cell-based; details: 22Rv1, 72 h
MKN-1 = assay: Cytotoxicity against human MKN1 cells assessed as decrease in cell viability after 72 hrs by CCK8 assay; type: functional, cell-based; details: MKN-1, 72 h
THP-1 = assay: Cytotoxicity against human THP1 cells assessed as decrease in cell viability after 48 hrs by MTT assay; type: functional, cell-based; details: THP-1, 48 h
DMS-114 = assay: Cytotoxicity against human DMS114 cells assessed as decrease in cell viability after 72 hrs by MTT assay; type: functional, cell-based; details: DMS-114, 72 h
786-0 = assay: Cytotoxicity against human 786-O cells assessed as decrease in cell viability after 72 hrs by MTT assay; type: functional, cell-based; details: 786-0, 72 h
K562 = assay: Cytotoxicity against human K562 cells assessed as decrease in cell viability after 48 hrs by MTT assay; type: functional, cell-based; details: K562, 48 h
U-937 = assay: Cytotoxicity against human U937 cells assessed as decrease in cell viability after 48 hrs by MTT assay; type: functional, cell-based; details: U-937, 48 h
[8] = Cytotoxicity against human H69AR cells assessed as decrease in cell viability after 72 hrs by MTT assay; type: functional, cell-based
MV4-11 = assay: Cytotoxicity against human MV4-11 cells assessed as decrease in cell viability after 48 hrs by MTT assay; type: functional, cell-based; details: MV4-11, 48 h
SBC-3 = assay: Cytotoxicity against human SBC3 cells assessed as decrease in cell viability after 72 hrs by MTT assay; type: functional, cell-based; details: SBC-3, 72 h
DU-4475 [9] = assay: Antiproliferative activity against human DU4475 cells; type: functional, cell-based
DMS-273 = assay: Cytotoxicity against human DMS273 cells assessed as decrease in cell viability after 72 hrs by MTT assay; type: functional, cell-based; details: DMS-273, 72 h
NCI-H146 = assay: Cytotoxicity against human NCI-H146 cells assessed as decrease in cell viability after 72 hrs by MTT assay; type: functional, cell-based; details: NCI-H146, 72 h
NCI-H69 = assay: Cytotoxicity against human H69 cells assessed as decrease in cell viability after 72 hrs by MTT assay; type: functional, cell-based; details: NCI-H69, 72 h
A549 [10] = assay: Antiproliferative activity against human A549 cells; type: functional, cell-based
769-P = assay: Cytotoxicity against human 769-P cells assessed as decrease in cell viability after 72 hrs by MTT assay; type: functional, cell-based
CAKI-2 = assay: Cytotoxicity against human Caki2 cells assessed as decrease in cell viability after 72 hrs by MTT assay; type: functional, cell-based; details: CAKI-2, 72 h
ML-2 = assay: Cytotoxicity against human ML2 cells assessed as decrease in cell viability after 48 hrs by MTT assay; type: functional, cell-based; details: ML-2, 48 h
KG-1 = assay: Cytotoxicity against human KG1 cells assessed as decrease in cell viability after 48 hrs by MTT assay; type: functional, cell-based; details: KG-1, 48 h
[11] = Antitumor activity against human gastric cancer cells xenografted in NOD/SCID mouse assessed as tumor growth inhibition at 15 mg/kg, iv administered once in every 2 days for 2 weeks measured on day 15 relative to control; type: functional; details: read-out: TGI
NCI-H446 = assay: Cytotoxicity against human NCI-H446 cells assessed as decrease in cell viability after 72 hrs by MTT assay; type: functional, cell-based; details: NCI-H446, 72 h
CAKI-1 = assay: Cytotoxicity against human Caki1 cells assessed as decrease in cell viability after 72 hrs by MTT assay; type: functional, cell-based; details: CAKI-1, 72 h
[12] = Cytotoxicity against human VMRC-RCW cells assessed as decrease in cell viability after 72 hrs by MTT assay; type: functional, cell-based
NCI-H2171 = assay: Cytotoxicity against human NCI-H2171 cells assessed as decrease in cell viability after 72 hrs by MTT assay; type: functional, cell-based; details: NCI-H2171, 72 h
A549 [13] = assay: Antitumor activity against human A549 cells xenografted in BALB/cSLC-nu/nu mouse assessed as tumor growth inhibition at 10 mg/kg administered through oral gavage as qd for 14 days measured on day 15 relative to control; type: functional; details: read-out: TGI
SGC-7901 = assay: Antiproliferative activity against human SGC7901 cells after 24 to 96 hrs by CCK8 assay; type: functional, cell-based
MOLM-13 = assay: Cytotoxicity against human MOLM13 cells assessed as decrease in cell viability after 48 hrs by MTT assay; type: functional, cell-based; details: MOLM-13, 48 h
SBC-5 = assay: Cytotoxicity against human SBC5 cells assessed as decrease in cell viability after 72 hrs by MTT assay; type: functional, cell-based; details: SBC-5, 72 h
KG-1a = assay: Cytotoxicity against human KG1a cells assessed as decrease in cell viability after 48 hrs by MTT assay; type: functional, cell-based
NCI-H82 = assay: Cytotoxicity against human H82 cells assessed as decrease in cell viability after 72 hrs by MTT assay; type: functional, cell-based; details: NCI-H82, 72 h
T47D [14] = assay: Antiproliferative activity against human T47D cells; type: functional, cell-based
NCI-H524 = assay: Cytotoxicity against human NCI-H524 cells assessed as decrease in cell viability after 72 hrs by MTT assay; type: functional, cell-based; details: NCI-H524, 72 h
BGC-823 = assay: Antiproliferative activity against human BGC823 cells after 24 to 96 hrs by CCK8 assay; type: functional, cell-based
CWR22R [15] = assay: Antiproliferative activity against human 22Rv1 cells; type: functional, cell-based
A549 [16] = assay: Antitumor activity against human A549 cells xenografted in BALB/cSLC-nu/nu mouse assessed as tumor growth inhibition at 10 mg/kg, iv qd administered for 14 days measured on day 15 relative to control; type: functional; details: read-out: TGI
[17] = Cytotoxicity against human KOCL48 cells assessed as decrease in cell viability after 48 hrs by MTT assay; type: functional, cell-based

**Q.** With `Cc1cc(O)c(-c2ccc([C@@H](C)CN(C)C)cc2)c2c1[nH]c(=O)c1sccc12` as the molecule, how does the IC50 (DU-4475 [1]) read?
**A.** Its IC50 is 53 nM.

**Q.** What about the IC50 (Lu-99 cell line [2]) of the same molecule?
**A.** Its IC50 is 7.6 nM.

**Q.** And the IC50 (HCT-116)?
**A.** The IC50 was 33 nM.

**Q.** What about the IC50 (UMUC3) of the same molecule?
**A.** The IC50 was 32 nM.

**Q.** What about the IC50 (T47D [3]) of the same molecule?
**A.** The IC50 was 72 nM.

**Q.** What about the IC50 (MDA-MB-231) of the same molecule?
**A.** The IC50 was 73 nM.

**Q.** And the inhibition in vivo at 40 mg/kg (Lu-99 cell line [4])?
**A.** The inhibition in vivo at 40 mg/kg was 110%.

**Q.** What about the inhibition in vivo at 100 mg/kg (Lu-99 cell line [5]) of the same molecule?
**A.** Its inhibition in vivo at 100 mg/kg is 113%.

**Q.** What about the IC50 (Daudi) of the same molecule?
**A.** Its IC50 is 25 nM.

**Q.** What about the IC50 (MIA PaCa-2) of the same molecule?
**A.** Its IC50 is 30 nM.

**Q.** What about the IC50 (HepG2) of the same molecule?
**A.** The IC50 was 19 nM.

**Q.** What about the IC50 (MKN-45) of the same molecule?
**A.** The IC50 was 39 nM.

**Q.** And the IC50 (A549 [6])?
**A.** Its IC50 is 31 nM.

**Q.** And the IC50 (CWR22R [7])?
**A.** The IC50 was 50 nM.

**Q.** What about the IC50 (MKN-1) of the same molecule?
**A.** The IC50 was 38 nM.

**Q.** Which IC50 (THP-1) does the source give for `CC(=O)c1cnc2ccc(-c3cc(Cl)c(O)c(Cl)c3)nc2c1N[C@H]1CC[C@H](CN(C)C)CC1` here?
**A.** Its IC50 is 15.6 nM.

**Q.** What about the IC50 (DMS-114) of the same molecule?
**A.** The IC50 was 2.1 nM.

**Q.** And the IC50 (786-0)?
**A.** The IC50 was 23.9 nM.

**Q.** And the IC50 (K562)?
**A.** The IC50 was 33 nM.

**Q.** What about the IC50 (U-937) of the same molecule?
**A.** The IC50 was 69.8 nM.

**Q.** What about the IC50 [8] of the same molecule?
**A.** The IC50 was 4.4 nM.

**Q.** And the IC50 (MV4-11)?
**A.** Its IC50 is 7.9 nM.

**Q.** And the IC50 (SBC-3)?
**A.** The IC50 was 4.3 nM.

**Q.** And the IC50 (DU-4475 [9])?
**A.** Its IC50 is 2.3 nM.

**Q.** And the IC50 (DMS-273)?
**A.** The IC50 was 8.4 nM.

**Q.** And the IC50 (NCI-H146)?
**A.** The IC50 was 7.9 nM.

**Q.** And the IC50 (NCI-H69)?
**A.** Its IC50 is 0.8 nM.

**Q.** What about the IC50 (A549 [10]) of the same molecule?
**A.** Its IC50 is 6.7 nM.

**Q.** What about the IC50 (769-P) of the same molecule?
**A.** The IC50 was 20.1 nM.

**Q.** And the IC50 (CAKI-2)?
**A.** Its IC50 is 38.7 nM.

**Q.** What about the IC50 (ML-2) of the same molecule?
**A.** The IC50 was 33.8 nM.

**Q.** And the IC50 (KG-1)?
**A.** Its IC50 is 16.9 nM.

**Q.** And the inhibition in vivo at 15 mg/kg [11]?
**A.** Its inhibition in vivo at 15 mg/kg is 106 to 112%.

**Q.** What about the IC50 (NCI-H446) of the same molecule?
**A.** The IC50 was 6.2 nM.

**Q.** What about the IC50 (CAKI-1) of the same molecule?
**A.** The IC50 was 12.4 nM.

**Q.** What about the IC50 [12] of the same molecule?
**A.** Its IC50 is 25.5 nM.

**Q.** What about the IC50 (NCI-H2171) of the same molecule?
**A.** Its IC50 is 4.7 nM.

**Q.** What about the inhibition in vivo at 10 mg/kg (A549 [13]) of the same molecule?
**A.** The inhibition in vivo at 10 mg/kg was 124%.

**Q.** And the IC50 (SGC-7901)?
**A.** The IC50 was 25 nM.

**Q.** And the IC50 (MOLM-13)?
**A.** The IC50 was 17.5 nM.

**Q.** What about the IC50 (SBC-5) of the same molecule?
**A.** Its IC50 is 2.8 nM.

**Q.** What about the IC50 (KG-1a) of the same molecule?
**A.** Its IC50 is 26.4 nM.

**Q.** What about the IC50 (NCI-H82) of the same molecule?
**A.** Its IC50 is 1.7 nM.

**Q.** And the IC50 (T47D [14])?
**A.** Its IC50 is 4.3 nM.

**Q.** And the IC50 (NCI-H524)?
**A.** The IC50 was 1.9 nM.

**Q.** And the IC50 (BGC-823)?
**A.** Its IC50 is 25 nM.

**Q.** What about the IC50 (CWR22R [15]) of the same molecule?
**A.** Its IC50 is 6 nM.

**Q.** What about the inhibition in vivo at 10 mg/kg (A549 [16]) of the same molecule?
**A.** The inhibition in vivo at 10 mg/kg was 108%.

**Q.** What about the IC50 [17] of the same molecule?
**A.** The IC50 was 16.9 nM.
